PubChem BioAssay (NCI)
Where “and” joins values, the source holds several entries; their conditions need not be identical. Equal entries are not always repeated.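 Cultured in 96-well plates, cells were exposed to test compound for 48 hours across five concentrations. Here, GI50 denotes the concentration required for 50% inhibition of growth. TGI: concentration producing complete growth inhibition.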

Columns and labels:
Assay in all cases: inhibition of tumour cell growth, NCI panel, 48 h
HCC-2998 colon = test system: HCC-2998 colon
SF-268 CNS = test system: SF-268 CNS
T-47D breast = test system: T-47D breast
COLO 205 colon = test system: COLO 205 colon
K-562 leukemia = test system: K-562 leukemia
TK-10 renal = test system: TK-10 renal
IGROV1 ovarian = test system: IGROV1 ovarian

Compound	TGI (HCC-2998 colon)	TGI (SF-268 CNS)	TGI (T-47D breast)	TGI (COLO 205 colon)	TGI (K-562 leukemia)	TGI (TK-10 renal)	TGI (IGROV1 ovarian)	GI50 (HCC-2998 colon)	GI50 (SF-268 CNS)	GI50 (T-47D breast)	GI50 (COLO 205 colon)	GI50 (K-562 leukemia)	GI50 (TK-10 renal)	GI50 (IGROV1 ovarian)
COC(=O)C1(Cc2cccc(Cl)c2)CCCCCCN1C(=O)c1ccccc1 (configuration not stated)	27.5 µM	42.1 µM	37.4 µM	38.7 µM	59.8 µM	29.5 µM	45.5 µM	–	–	–	–	–	–	–
COc1cc(C2C(C#N)=C(N)OC3=C2C(=O)c2ccccc2C3=O)cc(OC)c1OC (configuration not stated)	18.7 µM	60.7 µM	20.4 µM	19.7 µM	> 100 µM	> 100 µM	19.2 µM	2.52 µM	6.58 µM	3.72 µM	3.55 µM	415 nM	10 µM	2.24 µM
COc1ccc(/C=C(\C#N)c2cc3ccccc3n2C)cc1	5.98 µM	> 100 µM	> 100 µM	–	> 100 µM	> 100 µM	> 100 µM	0.865 µM	2.52 µM	0.389 µM	0.366 µM	178 nM	4.51 µM	0.526 µM
O=[As](O)(O)c1ccc(Cc2ccc([As](=O)(O)O)cc2)cc1	3.68 µM	1.85 µM	1.87 µM	1.9 µM	3.68 µM	1.27 µM	1.94 µM	–	–	–	–	–	–	–
O=[N+]([O-])c1ccc2c(N=Nc3c(O)ccc4ccccc34)c(O)cc(S(=O)(=O)O)c2c1	> 100 µM	50 µM and > 100 µM	–	50 µM and > 100 µM	50 µM and > 100 µM	50 µM and > 100 µM	50 µM and > 100 µM	–	23.9 µM	–	53.4 µM	25000 nM	87.3 µM	27.7 µM
CCNCC(O)c1ccc(N)c([N+](=O)[O-])c1 (configuration not stated)	–	> 100 µM	> 100 µM	> 100 µM	> 100 µM	> 100 µM	> 100 µM	–	–	–	–	–	–	–
O=Cc1coc2ccccc2c1=O	–	56.7 µM	> 100 µM	30.4 µM	55.5 µM	60.5 µM	41.4 µM	–	–	–	–	–	–	–
O=C(/C=C\c1ccnc2ccccc12)c1ccc([N+](=O)[O-])cc1	29.9 µM	> 82.8 µM	> 66.4 µM	> 100 µM	18 µM	> 100 µM	> 79.6 µM	6.05 µM	21.6 µM	4.19 µM	23.1 µM	2470 nM	21.3 µM	16 µM
Cc1nc(NC(=O)N2CCC[C@H]2C(N)=O)sc1-c1ccnc(C(C)(C)C(F)(F)F)c1	49.9 µM and > 10 µM	> 86.5 µM	1.79 µM and 0.599 µM	19.6 µM and > 10 µM	> 100 µM	15.8 µM and > 10 µM	0.483 µM and 0.816 µM	12.8 µM and 6.71 µM	9.71 µM and 9.76 µM	0.0412 µM and 0.0507 µM	2.75 µM and 1.38 µM	28100 nM and > 10000 nM	1.2 µM and 0.789 µM	0.0558 µM and 0.121 µM
C=C(C)C1/C=C(/C(C)C)CC[C@]2(C)O[C@@H]2CC[C@H](C)CC1=O (some centres not stated)	> 100 µM	> 100 µM	> 100 µM	> 100 µM	> 100 µM	> 100 µM	> 100 µM	99.9 µM	> 100 µM	76.7 µM	54.5 µM	33000 nM	66.6 µM	77.8 µM
CCNCCNc1cc(-c2ccc(F)cc2)c(C#N)c2nc3ccccc3n12	14.2 µM	12.8 µM	4.63 µM	5.74 µM	4.64 µM	8.45 µM	22.8 µM	3.83 µM	3.09 µM	2.26 µM	2.32 µM	2150 nM	2.33 µM	7.26 µM
Cn1cnc([N+](=O)[O-])c1Sc1ncnc2c1ncn2C1OC(CO)C(O)C1O (configuration not stated)	> 100 µM	> 100 µM	> 100 µM	61 µM	> 100 µM	> 100 µM	> 100 µM	5.02 µM	18.4 µM	5.01 µM	15 µM	3350 nM	4.58 µM	11.4 µM
CCCC[C@@H](COC(=O)N(Cc1cccs1)Cc1cccs1)NC(=O)N[C@@H](CC(=O)OC)c1ccc2c(c1)OCO2	> 100 µM	> 100 µM	–	> 100 µM	> 100 µM	> 100 µM	> 100 µM	> 100 µM	> 100 µM	–	> 100 µM	59600 nM	> 100 µM	> 100 µM
O=C(/C=C/c1ccco1)Nc1ncc(Cc2ccc(F)cc2)s1	> 100 µM	> 100 µM	> 100 µM	0.137 µM	> 100 µM	> 100 µM	> 100 µM	0.224 µM	0.201 µM	0.03 µM	0.0352 µM	38.5 nM	10.2 µM	0.167 µM
COc1ccc(C(Nc2ncccn2)c2cc3c(cc2O)OCO3)cc1 (configuration not stated)	47.4 µM	38.4 µM	28 µM	70.6 µM	> 100 µM	37.6 µM	59.3 µM	–	–	–	–	–	–	–
FC(F)(F)c1ccc(-c2cnc(Br)nc2NC2CCCCCC2)cc1	> 100 µM	> 100 µM	> 100 µM	> 100 µM	> 100 µM	> 100 µM	> 100 µM	> 100 µM	> 100 µM	19.6 µM	83.3 µM	50400 nM	> 100 µM	> 100 µM
N#Cc1nc(-c2ccccc2)oc1S(=O)(=O)N1CCOCC1	33.7 µM	40.4 µM	3.84 µM	4.91 µM	> 100 µM	19.2 µM	23.2 µM	17.3 µM	13.5 µM	1.78 µM	2.23 µM	2030 nM	6.25 µM	8 µM
CC(=O)/C(C)=N/N/C(N)=N\S(=O)(=O)c1cc(C(=O)Nc2ccccc2)c(Cl)cc1SCc1ccccc1	–	> 100 µM	> 100 µM	> 100 µM	> 100 µM	> 100 µM	> 100 µM	–	40.4 µM	> 100 µM	> 100 µM	5540 nM	62.4 µM	29.9 µM
COc1ccc(/C=C\c2cc(OC)c(OC)c(OC)c2)c(NS(=O)(=O)c2ccc(C)cc2)c1O	10.9 µM	> 91.5 µM	> 100 µM	3.89 µM	> 100 µM	> 100 µM	> 100 µM	0.0904 µM	0.226 µM	21 µM	0.723 µM	40.9 nM	3.8 µM	0.075 µM

Compound	TGI (HCC-2998 colon)	TGI (SF-268 CNS)	TGI (T-47D breast)	TGI (COLO 205 colon)	TGI (K-562 leukemia)	TGI (TK-10 renal)	TGI (IGROV1 ovarian)	GI50 (HCC-2998 colon)	GI50 (SF-268 CNS)	GI50 (T-47D breast)	GI50 (COLO 205 colon)	GI50 (K-562 leukemia)	GI50 (TK-10 renal)	GI50 (IGROV1 ovarian)
O=Nc1c(O)ccc2ccccc12	27.9 µM	10.6 µM	–	21.8 µM	16.8 µM	–	5.78 µM	13.4 µM	3.04 µM	–	7.81 µM	3490 nM	–	2.15 µM
CCS/C(Nc1ccccc1)=C(\C#N)C(=O)Nc1ccc(OC)cc1	> 100 µM	> 100 µM	> 100 µM	11.2 µM	> 100 µM	> 100 µM	> 100 µM	6.56 µM	6.8 µM	4.08 µM	3.06 µM	436 nM	24.3 µM	5.3 µM
COc1ccc(/C=C2\N=C3SC=C(N)N3C2=O)cc1	3.28 µM	7.29 µM	14.9 µM	4.23 µM	17.3 µM	–	2.39 µM	1.65 µM	1.82 µM	0.334 µM	1.13 µM	1560 nM	–	0.499 µM
C#Cc1ccc(NC(=O)c2ccc(/C=C/C(=O)c3nccn3C)cc2)cc1	0.804 µM	4.5 µM	2.44 µM	1.36 µM	6.55 µM	4.66 µM	0.884 µM	0.434 µM	0.76 µM	0.521 µM	0.592 µM	136 nM	0.905 µM	0.407 µM
CN(Cc1cnc2nc(N)nc(N)c2n1)c1ccc(C(=O)NC(CCC(=O)O)C(=O)O)cc1 (configuration not stated)	> 100 µM	> 100 µM	> 100 µM	> 100 µM	> 100 µM	> 100 µM	> 100 µM	0.0992 µM	0.247 µM	> 100 µM	–	–	> 100 µM	0.809 µM
C=C(C)[C@H]1CC/C(C)=C/CCC(C)C(=O)CC/C(CO)=C\[C@@H]1O (some centres not stated)	> 100 µM	> 100 µM	> 100 µM	> 100 µM	> 100 µM	> 100 µM	> 100 µM	> 100 µM	88.9 µM	> 100 µM	> 100 µM	65600 nM	70.8 µM	> 100 µM
O=c1[nH]c(-c2ccc(C(F)(F)F)cc2)nc2c1CSCC2	> 100 µM	> 100 µM	98.1 µM	> 100 µM	> 100 µM	66.8 µM	> 100 µM	> 81.2 µM	53.2 µM	23.7 µM	> 100 µM	> 100000 nM	23.8 µM	43.1 µM
O=C(NNS(=O)(=O)c1cc(C(F)(F)F)cc(C(F)(F)F)c1)c1cnn(-c2ccc(Cl)cc2)c1C(F)(F)F	31 µM	52.6 µM	45 µM	34.8 µM	65.7 µM	54.7 µM	38.5 µM	16.4 µM	21.6 µM	17.5 µM	17.4 µM	23100 nM	24.3 µM	17.4 µM
CC/C=C\CCC/C=C1/C(=O)C=C[C@@H]1C/C=C\CCCC(=O)O	3.39 µM	22.1 µM	23.3 µM	18.4 µM	37.9 µM	17.2 µM	15.9 µM	1.8 µM	5.03 µM	10.1 µM	5.83 µM	2500 nM	5.04 µM	4.12 µM
COc1ccc(/C=C2\COc3ccc(-c4ccccc4)cc3C2=O)cc1O	10.3 µM	12.7 µM	30.2 µM	21.9 µM	> 100 µM	8.3 µM	15.9 µM	3.31 µM	3.18 µM	3.28 µM	3.68 µM	3600 nM	2.14 µM	4.37 µM
COc1ccc(NC(=O)c2cc(OC)c(OC)c(OC)c2)cc1O	> 100 µM	> 100 µM	> 100 µM	> 100 µM	> 100 µM	> 100 µM	> 100 µM	14.6 µM	5.43 µM	9.89 µM	4.45 µM	489 nM	> 100 µM	8.86 µM
Oc1ccc2ccccc2c1N=Nc1ccccc1	> 100 µM	> 100 µM	> 100 µM	> 100 µM	> 100 µM	> 100 µM	> 100 µM	–	25 µM and > 63.8 µM	22.5 µM and > 100 µM	–	–	–	–
Oc1ccccc1-n1c(-c2ccccc2)ccc1-c1ccccc1	29.2 µM	24.8 µM	32.9 µM	56.6 µM	64.3 µM	24.1 µM	19.4 µM	11.2 µM	10.5 µM	4.12 µM	15.3 µM	5170 nM	11.1 µM	4.1 µM
Cn1ccnc1C(=O)/C=C/c1ccc(C(=O)Nc2nc3ccccc3[nH]2)cc1	> 25 µM	> 25 µM	> 25 µM	–	> 25 µM	> 25 µM	> 25 µM	10.3 µM	2.41 µM	3.37 µM	–	829 nM	13.3 µM	5.67 µM
COc1ccc2c(c1)OC13Oc4cc(OC)ccc4C=C1CCCC3=C2	> 100 µM	> 100 µM	> 100 µM	> 100 µM	> 100 µM	> 100 µM	> 100 µM	> 100 µM	> 100 µM	4.7 µM	> 100 µM	> 100000 nM	> 100 µM	> 100 µM
C[Se]C(=O)CC1=C2C=C(F)C=CC2/C(=C\c2ccc(S(C)=O)cc2)C1C (configuration not stated)	6.79 µM	0.0242 µM	> 34 µM	6.36 µM	> 100 µM	–	3.17 µM	1.63 µM	< 0.01 µM	2.94 µM	1.25 µM	1360 nM	–	0.0972 µM
c1ccc(-c2nc(N3CCNCC3)c3nc(-c4ccccc4)oc3n2)cc1	3.49 µM	3.46 µM	–	4.12 µM	4.22 µM	3.32 µM	3.14 µM	1.81 µM	1.73 µM	–	2.06 µM	1440 nM	1.67 µM	1.65 µM
COc1ccc([C@H]2O[C@@H](CO)C[C@]2(O)c2ccc(OC)cc2)cc1	> 100 µM	> 100 µM	–	> 100 µM	> 100 µM	> 100 µM	> 100 µM	> 100 µM	> 100 µM	–	> 100 µM	> 100000 nM	> 100 µM	> 100 µM
